Legend:
[1] = test system: Chinese cabbage plants; conditions: 2 mg/L compound in Hoagland nutrient solution, mercuric chloride or glycerol added, 48 h
[2] = test system: BraPIP1;1 gene; test: Response of BraPIP1;1 gene expression to thiamethoxam (quantitative RT-PCR); type: in vivo, Chinese cabbage; conditions: 10 mg/L thiamethoxam, p<0.001
Procedure: Seedlings of Chinese cabbage with the same growth condition were put in a Hoagland's nutrient solution containing 10 mg/L thiamethoxam (the Hoagland's nutrient solution was purchased from Beijing Coolaber Technology Co., Ltd.), and treated in the Hoagland's nutrient solution for 6 and 24 hours (treatment group).
At the same time, a Hoagland's nutrient solution without thiamethoxam was used as the control group.
Treated root and aboveground tissue RNA of two groups was extracted respectively, the 1st strand cDNA was obtained by reverse transcription as a template, specific expression primers were designed based on the cDNA sequence of BraPIP1;1, the Chinese cabbage Tublin was used as an internal reference, and the expression of the gene transcription level was detected by quantitative RT-PCR.
The quantification instrument is 7500 Real Time PCR System (Applied Biosystem), and a qPCRT system was configured according to the instructions of a kit 2×TSINGKE Master qPCR Mix (Tsingke Biotechnology Co., Ltd.). The PCR program is: pre-denaturation at 95° C. for 10 min, at 95° C. for 15 s, and at 60° C. for 20 s, for 40 cycles.

[3] = test system: Saccharomyces cerevisiae INVSc1 (pYES2-BraPIP1;1); test: Growth experiment of recombinant yeast strains under thiamethoxam stress; type: cell-based; conditions: 10-1600 mg/L thiamethoxam, stress at 30° C. for 72 h, compared with wild strain (pYES2)
Excerpt: (§1) The BraPIP1;1 gene cloned in Example 1 was constructed into the Saccharomyces cerevisiae overexpression vector pYES2 (purchased from Clotech) referring to (He Lin, Jiang Lili, Wang Yucheng, Analysis of the stress tolerance of Tamarix thioredoxin peroxidase (ThPrx1) gene transformed into yeast, Journal of Northeast Forestry University, 2011, Vol. 39. No. 4, 101-104), and the constructed recombinant plasmid was named pYES2-BraPIP1;1. The pYES2-BraPIP1;1 and an empty vector pYES2 were transformed into Saccharomyces cerevisiae INVSc1 by lithium acetate precipitation. The recombinant yeasts were named INVSc1 (pYES2-BraPIP1;1) and INVSc1 (pYES2), respectively.
(§2) Induction of recombinant strains: Single colonies of the control yeast INvsc1 (pYES2) and the recombinant yeast INvscl (pYES2-BraPIP1;1) were picked, inoculated in an SC-U liquid medium (with glucose of a final concentration of 2%) respectively, and incubated at 30° C. for 24 h on a shaker. The OD600 value is measured, and the amount of bacterial solution required is calculated such that the OD600 of bacteria in 10 ml of induction medium (SC-U+2% galactose) is 0.4. Induce expression was carried out at 30° C. for 24 h. The OD600 value was measured again, and the amount of bacterial solution required was calculated. […]

[4] = test system: Saccharomyces cerevisiae INVSc1 (pYES2-BraPIP1;1); test: Thiamethoxam content experiment, recombinant yeast strain; type: cell-based; conditions: 30° C., 6 h
Excerpt: as §1, §2

[5] = test system: Saccharomyces cerevisiae INVSc1 (pYES2); test: Thiamethoxam content experiment, control yeast strain; type: cell-based; conditions: 30° C., 6 h
Excerpt: as §1, §2

[6] = test system: BraPIP1;1 overexpression Arabidopsis thaliana (BraPIP1;1#4, BraPIP1;1#6); test: Main root length of BraPIP1;1 transgenic Arabidopsis thaliana under thiamethoxam stress; type: in vivo; conditions: 1/2MS media with 10 and 50 mg/L thiamethoxam, 20 days, compared with wild type Col-0
Excerpt: (§3) The BraPIP1;1 gene cloned in Example 1 was constructed into the plant binary overexpression vector pCAMBIA2301 (purchased from Clotech). By the Agrobacterium tumefaciens-mediated method (Valvekens, D., van Montagu, M., and Lijsebettens, M. V. (1988). Agrobacterium tumefaciens-mediated transformation of Arabidopsis thaliana root explants by using kanamycin selection. Proc. Natl. Acad. Sci. USA 85, 5536-5540.), the inflorescence of wild-type Arabidopsis thaliana Col-0 (purchased from ATCC, USA) was infected with the constructed overexpression vector. Through screening (resistance pure line seedlings were screened on a ½MS plate containing 50 μg/mL kanamycin), BraPIP1;1 overexpression Arabidopsis thaliana pure line materials BraPIP1;1#4 and BraPIP1;1#6 were identified and obtained.
The pure line seeds of the BraPIP1;1#4 and BraPIP1;1#6 obtained in the previous transgenic experiment and a wild-type Col-0 material (WT) were germinated on a ½MS medium respectively, and then transferred to ½MS media (Qingdao Hopebio Co., Ltd., Item No. HB8469-12, PH=5.6) containing 10 and 50 mg/L thiamethoxam respectively. After 20 days, the growth of the seedlings was observed and the main root length was measured.

[7] = test system: BraPIP1;1 overexpression Arabidopsis thaliana; test: Thiamethoxam content of BraPIP1;1 transgenic Arabidopsis thaliana grown in soil; type: in vivo; conditions: soil containing 10 mg/L thiamethoxam, 20 days, compared with wild plant
Excerpt: as §3
In addition, germinated seedlings of the same size were transplanted into soil containing 10 mg/L thiamethoxam, and after 20 days of culture, the root and aboveground samples of the transgenic Arabidopsis thaliana and the control were harvested respectively, washed with deionized water, and weighed.

Row | SMILES | content of the compound in the plants after the water channel inhibitors were added [1] | expression abundance of BraPIP1;1 in the aboveground parts vs control ([2]; 6 hours) | expression abundance of BraPIP1;1 in the roots vs control ([2]; 6 hours) | expression abundance of BraPIP1;1 in the aboveground parts vs control ([2]; 24 hours) | growth of transgenic strain (pYES2-BraPIP1;1) with thiamethoxam [3] | thiamethoxam content of the recombinant strain ([4]; 10 mg/L thiamethoxam) [ng/OD] | thiamethoxam content of the recombinant strain (pYES2-BraPIP1;1) ([4]; 100 mg/L thiamethoxam) [ng/OD] | thiamethoxam content of the control strain ([5]; 10 mg/L thiamethoxam) [ng/OD] | thiamethoxam content of the control strain (pYES2) ([5]; 100 mg/L thiamethoxam) [ng/OD] | main root length of the transgenic strain [6] | thiamethoxam content of the aboveground parts of the transgenic plant [7] | thiamethoxam content of the roots of the transgenic plant [7]
1 | CN1CCCC1c1cccnc1 (stereo not drawn) [nicotine] | did not change significantly | – | – | – | – | – | – | – | – | – | – | –
2 | CN1COCN(Cc2cnc(Cl)s2)/C1=N\[N+](=O)[O-] [thiamethoxam] | – | significantly increased | significantly increased | significantly increased | grows weaker than the wild strain | 0.0078 | 0.021 | 0.0038 | 0.011 | shorter than that of the wild type | higher than that of the wild plant | higher than that of the wild plant
